# In patent US12060347B2 (BRISTOL-MYERS SQUIBB COMPANY, priority 2016, dated 2024):
# Biological target: T1, human PAR4 (Homo sapiens, UniProt Q96RI0)
# T1 construct: expressed in transfected cells; host or cells: HEK293 PAR4 Clone 1.2A (BMS Arctic ID 383940)
# T1 sequence (Q96RI0 18-385): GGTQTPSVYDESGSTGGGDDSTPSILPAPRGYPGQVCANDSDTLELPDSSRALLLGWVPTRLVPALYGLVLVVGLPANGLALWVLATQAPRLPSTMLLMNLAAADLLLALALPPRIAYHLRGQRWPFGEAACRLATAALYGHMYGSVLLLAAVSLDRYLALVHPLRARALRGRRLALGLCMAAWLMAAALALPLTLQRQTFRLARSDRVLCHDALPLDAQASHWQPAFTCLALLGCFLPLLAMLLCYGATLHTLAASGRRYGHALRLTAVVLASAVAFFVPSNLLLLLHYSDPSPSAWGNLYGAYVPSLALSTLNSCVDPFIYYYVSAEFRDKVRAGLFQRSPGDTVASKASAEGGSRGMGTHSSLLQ
# Assay: PAR4 FLIPR assay: antagonism of agonist-peptide-induced calcium mobilization in PAR4-expressing HEK293 cells
# Format: cell-based
# Settings: H-Ala-Phe(4-F)-[…]NH2-induced intracellular calcium mobilization, 11-point curves
row,SMILES,IC50 [nM]
1,"COc1ccc(NC(=O)OCCOc2cc(C)c3nc(-c4cc(C)cc5nc(OC)cnc45)sc3c2)cn1 [Example 112, 2-(2-(2-methoxy-7-methylquinoxalin-5-yl)-4-methylbenzo[d]thiazol-6-yloxy)ethyl 6-methoxypyridin-3-ylcarbamate]",2
2,"COc1cnc2c(-c3nc4c(C)cc(OCCOC(=O)Nc5ccncc5)cc4s3)cc(C)cc2n1 [Example 113, 2-(2-(2-methoxy-7-methylquinoxalin-5-yl)-4-methylbenzo[d]thiazol-6-yloxy)ethyl pyridin-4-ylcarbamate]",3
3,"Cc1cc(-c2nc3c(C)cc(OCCNS(=O)(=O)c4ccc(F)cc4)cc3s2)c2ncc(COC(F)F)nc2c1 [Example 114, N-(2-(2-(2-((difluoromethoxy)methyl)-7-methylquinoxalin-5-yl)-4-methylbenzo[d]thiazol-6-yloxy)ethyl)-4-fluorobenzenesulfonamide]",1600
4,"COc1cnc2c(-c3nc4c(C)cc(OCCOC(=O)Nc5ccc(C#N)nc5)cc4s3)cc(C)cc2n1 [Example 117, 2-((2-(2-methoxy-7-methylquinoxalin-5-yl)-4-methylbenzo[d]thiazol-6-yl)oxy)ethyl (6-cyanopyridin-3-yl)carbamate]",0.5
5,"COc1cnc2c(-c3nc4c(C)cc(OCCOC(=O)Nc5cnc(Cl)nc5)cc4s3)cc(C)cc2n1 [Example 119, 2-((2-(2-methoxy-7-methylquinoxalin-5-yl)-4-methylbenzo[d]thiazol-6-yl)oxy)ethyl (2-chloropyrimidin-5-yl)carbamate]",16
6,"COc1cnc2c(-c3cc4cc(OC)c(F)cc4o3)cc(C)cc2n1 [Example 120, 5-(6-fluoro-5-methoxybenzofuran-2-yl)-2-methoxy-7-methylquinoxaline]",28
7,"COc1cnc2c(-c3cc4cc(OCCOC(=O)Nc5ccnc(C)c5)c(F)cc4o3)cc(C)cc2n1 [Example 123, 2-((6-fluoro-2-(2-methoxy-7-methylquinoxalin-5-yl)benzofuran-5-yl)oxy)ethyl (2-methylpyridin-4-yl)carbamate]",1.5
8,"COc1cnc2c(-c3cc4cc(OC)c(F)c(Cl)c4o3)cc(CO)cc2n1 [Example 124, (8-(7-chloro-6-fluoro-5-methoxybenzofuran-2-yl)-3-methoxyquinoxalin-6-yl)methanol]",1.8
9,"COc1cnc2c(-c3cc4cc(OC)c(F)cc4o3)cc(CO)cc2n1 [Example 125, (8-(6-fluoro-5-methoxybenzofuran-2-yl)-3-methoxyquinoxalin-6-yl)methanol]",2
10,"COc1cnc2c(-c3cc4cc(OCCOC(=O)Nc5ccnc(C)c5)c(F)cc4o3)cc(CO)cc2n1 [Example 126, 2-((6-fluoro-2-(7-(hydroxymethyl)-2-methoxyquinoxalin-5-yl)benzofuran-5-yl)oxy)ethyl (2-methylpyridin-4-yl)carbamate]",1.2
11,COc1ccc2nc(-c3cc(CO)cc4nc(OC)cnc34)sc2c1 [Example 127],8.3
12,"COc1cnc2c(-c3nc4c(C)cc(OCCOC(=O)Nc5ccc(C)nc5)cc4s3)cc(CO)cc2n1 [Example 128, 2-(2-(7-(hydroxymethyl)-2-methoxyquinoxalin-5-yl)-4-methylbenzo[d]thiazol-6-yloxy)ethyl 6-methylpyridin-3-ylcarbamate]",2.2
13,"C=Cc1cnc2c(-c3cc4ccccc4o3)cc(C)cc2n1 [Example 131, 5-(benzofuran-2-yl)-7-methyl-2-vinylquinoxaline]",890
14,"CCc1cnc2c(-c3cc4ccccc4o3)cc(C)cc2n1 [Example 132, 5-(benzofuran-2-yl)-2-ethyl-7-methylquinoxaline]",59
15,"Cc1ccc(-c2cc3ccccc3o2)c2ncc(OC(F)F)nc12 [Example 133, 5-(benzofuran-2-yl)-2-(difluoromethoxy)-8-methylquinoxaline]",570
16,"COc1cnc2c(-c3cc4ccccc4o3)nc(C)cc2c1 [Example 134, 8-(benzofuran-2-yl)-3-methoxy-6-methyl-1,7-naphthyridine\]",120
17,"Cc1cc(-c2nc3c(s2)CCC3)c2ncc(OC(F)F)nc2c1 [Example 136, 2-(2-(difluoromethoxy)-7-methylquinoxalin-5-yl)-5,6-dihydro-4H-cyclopenta[d]thiazole]",29
18,"COc1cnc2c(-c3nc4c(s3)CCCCC4)cc(C)cc2n1 [Example 137, 2-(2-methoxy-7-methylquinoxalin-5-yl)-5,6,7,8-tetrahydro-4H-cyclohepta[d]thiazole]",29
19,"COc1cnc2c(-c3nc4c(s3)C(OC)CCC4)cc(C)cc2n1 (stereo not shown) [Example 139, 7-methoxy-2-(2-methoxy-7-methylquinoxalin-5-yl)-4,5,6,7-tetrahydrobenzo[d]thiazole]",3.9
20,"COc1cnc2c(-c3nc4c(s3)CC(OC)CC4)cc(C)cc2n1 (stereo not shown) [Example 140, 6-methoxy-2-(2-methoxy-7-methylquinoxalin-5-yl)-4,5,6,7-tetrahydrobenzo[d]thiazole]",21
21,"COc1cnc2c(-c3nc4c(s3)CC(CCO)C4)cc(C)cc2n1 (stereo not shown) [Example 142, 2-(2-(2-methoxy-7-methylquinoxalin-5-yl)-5,6-dihydro-4H-cyclopenta[d]thiazol-5-yl) ethanol]",5.6
22,"COCc1cnc2c(-c3nc4c(s3)CCCC4)cc(C)cc2n1 [Example 144, 2-(2-(methoxymethyl)-7-methylquinoxalin-5-yl)-4,5,6,7-tetrahydrobenzo[d]thiazole]",0.3
23,"COCc1cnc2c(-c3nc4c(s3)C(O)C(C)(C)CC4)cc(C)cc2n1 (stereo not shown) [Example 145, 2-(2-(methoxymethyl)-7-methylquinoxalin-5-yl)-6,6-dimethyl-4,5,6,7-tetrahydrobenzo[d] thiazol-7-ol]",4.5
24,COCc1cnc2c(-c3nc4ccc(OC)nc4s3)cc(C)cc2n1 [Example 147],1.7
25,"COCc1cnc2c(-c3nc4cccnc4s3)cc(C)cc2n1 [Example 148, 2-(2-(methoxymethyl)-7-methylquinoxalin-5-yl)thiazolo[5,4-b]pyridine]",48
26,"COc1cnc2c(-c3nc4ccc(OC)nc4s3)cc(C)cc2n1 [Example 150, 5-methoxy-2-(2-methoxy-7-methylquinoxalin-5-yl)thiazolo[5,4-b]pyridine]",94
27,"COc1cnc2c(-c3nc4c(Cl)cncc4s3)cc(C)cc2n1 [Example 151, 7-chloro-2-(2-methoxy-7-methylquinoxalin-5-yl)thiazolo[5,4-c]pyridine]",2000

# Continued by falling IC50, values first:
row,IC50 [nM],SMILES
1,2200,"Cc1cc(-c2cc3ccccc3o2)c2ncc(-c3ccoc3)nc2c1 [Example 135, 5-(benzofuran-2-yl)-2-(furan-3-yl)-7-methylquinoxaline]"
2,460,"COc1ccc2c(-c3cc4ccccc4o3)nc(C)cc2n1 [Example 130, 5-(benzofuran-2-yl)-2-methoxy-7-methyl-1,6-naphthyridine]"
3,80,"COc1cnc2c(-c3nc4c(s3)CC(C)(C)CC4)cc(C)cc2n1 [Example 141, 2-(2-methoxy-7-methylquinoxalin-5-yl)-6,6-dimethyl-4,5,6,7-tetrahydrobenzo[d]thiazole]"
4,36,"COCc1cnc2c(-c3nc4c(s3)C(O)CCC4)cc(C)cc2n1 (stereo not shown) [Example 143, 2-(2-(methoxymethyl)-7-methylquinoxalin-5-yl)-4,5,6,7-tetrahydrobenzo[d]thiazol-7-ol]"
5,33,"COc1cnc2c(-c3nc4c(s3)C(O)CCC4)cc(C)cc2n1 (stereo not shown) [Example 138, 2-(2-methoxy-7-methylquinoxalin-5-yl)-4,5,6,7-tetrahydrobenzo[d]thiazol-7-ol]"
6,7,"COCc1cnc2c(-c3nc4cnccc4s3)cc(C)cc2n1 [Example 146, 2-(2-(methoxymethyl)-7-methylquinoxalin-5-yl)thiazolo[4,5-c]pyridine]"
7,4.2,"COCc1cnc2c(-c3nc4c(Cl)cncc4s3)cc(C)cc2n1 [Example 149, 7-chloro-2-(2-(methoxymethyl)-7-methylquinoxalin-5-yl)thiazolo[5,4-c]pyridine]"
8,3.9,"COc1cnc2c(-c3cc4cc(OC)c(F)c(Cl)c4o3)cc(C)cc2n1 [Example 122, 5-(7-chloro-6-fluoro-5-methoxybenzofuran-2-yl)-2-methoxy-7-methylquinoxaline]"
9,3.2,"COc1cnc2c(-c3nc4c(C)cc(OCCOC(=O)Nc5ccnc(C)c5)cc4s3)cc(CO)cc2n1 [Example 129, 2-(2-(7-(hydroxymethyl)-2-methoxyquinoxalin-5-yl)-4-methylbenzo[d]thiazol-6-yloxy)ethyl 2-methylpyridin-4-ylcarbamate]"
10,2.2,"COc1cnc2c(-c3nc4ccc(OCCOC(=O)Nc5cccc(C#N)c5)cc4s3)cc(C)cc2n1 [Example 118, 2-((2-(2-methoxy-7-methylquinoxalin-5-yl)benzo[d]thiazol-6-yl)oxy)ethyl (3-cyanophenyl)carbamate]"
11,1.4,"COc1cnc2c(-c3nc4c(C)cc(OCCOC(=O)Nc5cncc(C#N)c5)cc4s3)cc(C)cc2n1 [Example 116, 2-(2-(2-methoxy-7-methylquinoxalin-5-yl)-4-methylbenzo[d]thiazol-6-yloxy)ethyl 5-cyanopyridin-3-ylcarbamate]"
12,1.3,"COc1ccc(NC(=O)OCCOc2ccc3nc(-c4cc(C)cc5nc(OC)cnc45)sc3c2)cn1 [Example 115, 2-(2-(2-methoxy-7-methylquinoxalin-5-yl)benzo[d]thiazol-6-yloxy)ethyl 6-methoxypyridin-3-ylcarbamate]"
13,0.7,"COCc1cnc2c(-c3cc4cc(OC)c(F)c(Cl)c4o3)cc(C)cc2n1 [Example 121, 5-(7-chloro-6-fluoro-5-methoxybenzofuran-2-yl)-2-(methoxymethyl)-7-methylquinoxaline]"
